According to patent US20110178064A1, “SPIRO CONDENSED […] DERIVATIVES FOR USE AS ANTIBACTERIAL” (A[…]&D, priority 2007, published 2011):
In brackets after ≈: the same amount, converted by molar mass.

Legend:
Eco524 = assay: Bacterial susceptibility testing (MIC) in liquid media, 96 well format; type: cell-based; settings: Escherichia coli
Excerpt: (§1) Compounds may be tested for antimicrobial activity by susceptibility testing in liquid media in a 96 well format. Compounds may be dissolved in dimethylsulfoxide and tested in 10 doubling dilutions in the susceptibility assays. The organisms used in the assay may be grown overnight on suitable agar media and then suspended in a liquid medium appropriate for the growth of the organism. The suspension may be a 0.5 McFarland and a further 1 in 10 dilution may be advantageously made into the same liquid medium to prepare the final organism suspension in 100 μL. Plates may be incubated under appropriate conditions at 37° C. for 24 hours prior to reading. […] Compounds may be evaluated against organisms such as Gram-positive species, including Staphylococcus aureus, Streptococcus pneumoniae, Streptococcus pyogenes, and Enterococcus faecium; and Gram-negative species including Haemophilus influenzae, Escherichia coli and Moraxella catarrhalis.

Hin158 = assay: as above; type: cell-based; settings: Haemophilus influenzae
Excerpt: as §1

Hin446 = assay: as above; type: cell-based; settings: Haemophilus influenzae
Excerpt: as §1

Hin737 = assay: as above; type: cell-based; settings: Haemophilus influenzae
Excerpt: as §1

[1] = target: Escherichia coli DNA gyrase A/B tetramer (Escherichia coli, UniProt P0AES4+P0AES6); assay: DNA gyrase supercoiling activity fluorescence polarisation assay; type: biochemical
Escherichia coli DNA gyrase A/B tetramer, sequence (P0AES4 whole entry, one chain of several): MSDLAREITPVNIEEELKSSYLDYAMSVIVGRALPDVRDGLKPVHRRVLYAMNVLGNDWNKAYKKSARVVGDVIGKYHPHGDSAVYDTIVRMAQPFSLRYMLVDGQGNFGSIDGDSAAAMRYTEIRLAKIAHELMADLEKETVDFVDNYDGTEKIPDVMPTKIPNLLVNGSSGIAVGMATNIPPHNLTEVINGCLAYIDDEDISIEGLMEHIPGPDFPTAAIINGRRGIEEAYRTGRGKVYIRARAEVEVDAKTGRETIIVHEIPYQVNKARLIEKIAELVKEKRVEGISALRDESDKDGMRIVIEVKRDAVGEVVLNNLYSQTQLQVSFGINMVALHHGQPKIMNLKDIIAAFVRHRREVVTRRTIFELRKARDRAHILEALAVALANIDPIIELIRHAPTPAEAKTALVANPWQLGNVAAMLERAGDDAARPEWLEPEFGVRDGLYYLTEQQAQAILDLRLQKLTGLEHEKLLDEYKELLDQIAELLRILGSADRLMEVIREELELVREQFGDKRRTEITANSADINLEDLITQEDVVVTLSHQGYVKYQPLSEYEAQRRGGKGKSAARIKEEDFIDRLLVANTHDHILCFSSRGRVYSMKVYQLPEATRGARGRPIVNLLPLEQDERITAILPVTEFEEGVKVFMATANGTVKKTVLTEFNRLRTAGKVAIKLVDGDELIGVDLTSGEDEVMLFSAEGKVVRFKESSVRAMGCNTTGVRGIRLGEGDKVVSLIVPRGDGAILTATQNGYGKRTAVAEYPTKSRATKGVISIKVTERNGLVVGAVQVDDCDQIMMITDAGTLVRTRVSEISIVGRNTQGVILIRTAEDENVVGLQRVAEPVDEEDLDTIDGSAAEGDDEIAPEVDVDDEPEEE
Summary of the method: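 Gyrase supercoiling reactions quenched with 40 nM 5′-BODIPY-FL oligodeoxynucleotide triplex probe in pH 3.5 NaCl/sodium acetate buffer; fluorescence anisotropy read after 60 min (485/535 nm).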

Mca445 = assay: Bacterial susceptibility testing (MIC) in liquid media, 96 well format; type: cell-based; settings: Moraxella catarrhalis
Excerpt: as §1

Sau517 = assay: as above; type: cell-based; settings: Staphylococcus aureus
Excerpt: as §1

Compound | MIC (Eco524) [µg/mL] | MIC (Hin158) [µg/mL] | MIC (Hin446) [µg/mL] | MIC (Hin737) [µg/mL] | IC50 [1] [µM] | MIC (Mca445) [µg/mL] | MIC (Sau517) [µg/mL]
C[C@@H]1CN2c3ncccc3CC3(C(=O)NC(=O)NC3=O)[C@H]2[C@H](C)O1 (relative stereo) [Example 18, (6aS,7S,9R)-rel-7,9-Dimethyl-6a,7,9,10-tetrahydro-1′H,5H-spiro[[1,4]oxazino[4,3-a][1,8]naphthyridine-6,5′-pyrimidine]-2′,4′,6′(3′H)-trione] | 32 (≈ 96.9 µM) | 8 (≈ 24.2 µM) | 16 (≈ 48.4 µM) | 32 (≈ 96.9 µM) | 51 | – | –
C[C@@H]1CN2c3ccc(Br)nc3CC3(C(=O)NC(=O)NC3=O)[C@H]2[C@H](C)O1 (relative stereo) [Example 19, (2R,4S,4aS)-rel-8-Bromo-2,4-dimethyl-2,4,4a,6-tetrahydro-1H,1′H-spiro[[1,4]oxazino[4,3-a][1,5]naphthyridine-5,5′-pyrimidine]-2′,4′,6′(3′H)-trione] | 2 (≈ 4.89 µM) | 1 (≈ 2.44 µM) | 4 (≈ 9.77 µM) | 16 (≈ 39.1 µM) | 11 | 8 (≈ 19.5 µM) | 32 (≈ 78.2 µM)
